Test results reported in PubChem BioAssay AID220 (DTP/NCI, 2004).
Where “and” joins values, the source holds several entries; their conditions need not be identical. Identical values can stand only once. Records with an inconclusive call do not appear.

System: CD8F1 mice, subcutaneous mammary adenocarcinoma, T/C%
Assay: NCI In Vivo Anticancer Drug Screen. Data for tumor model Mammary Adenocarcinoma CD8F1 (subcutaneous) in CD8F1
Conditions: higher = larger tumour
Procedure, shortened: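 Mice carrying transplanted tumors received test compound, and survival or tumor size was recorded. Each value is the treated-group measurement divided by the corresponding measurement in vehicle-dosed controls.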

[1] = endpoint: mean tumor weight, dose: 25.0 mg/kg/injection, schedule: Q07DX006 (ip), vehicle: saline
[2] = endpoint: mean tumor weight, dose: 50.0 mg/kg/injection, schedule: Q07DX006 (ip), vehicle: saline
[3] = endpoint: median tumor weight (est.), dose: 8.0 mg/kg/injection, schedule: Q07DX005 (ip), vehicle: saline
[4] = endpoint: median tumor weight (est.), dose: 100.0 mg/kg/injection, schedule: Q07DX005 (ip), vehicle: saline
[5] = endpoint: median tumor weight (est.), dose: 400.0 mg/kg/injection, schedule: Q07DX005 (ip), vehicle: saline
[6] = endpoint: median tumor weight (est.), dose: 25.0 mg/kg/injection, schedule: Q07DX005 (ip), vehicle: saline
[7] = endpoint: median tumor weight (est.), dose: 50.0 mg/kg/injection, schedule: Q07DX005 (ip), vehicle: saline
[8] = endpoint: median tumor weight (est.), dose: 200.0 mg/kg/injection, schedule: Q07DX005 (ip), vehicle: saline
[9] = endpoint: median tumor weight (est.), dose: 3.12 mg/kg/injection, schedule: Q07DX005 (ip), vehicle: saline with Tween-80
[10] = endpoint: median tumor weight (est.), dose: 6.25 mg/kg/injection, schedule: Q07DX005 (ip), vehicle: saline with Tween-80
[11] = endpoint: median tumor weight (est.), dose: 6.25 mg/kg/injection, schedule: Q07DX005 (ip), vehicle: saline
[12] = endpoint: median tumor weight (est.), dose: 12.5 mg/kg/injection, schedule: Q07DX005 (ip), vehicle: saline with Tween-80
[13] = endpoint: median tumor weight (est.), dose: 12.5 mg/kg/injection, schedule: Q07DX005 (ip), vehicle: saline
[14] = endpoint: median tumor weight (est.), dose: 25.0 mg/kg/injection, schedule: Q07DX005 (ip), vehicle: saline with Tween-80
[15] = endpoint: median tumor weight (est.), dose: 50.0 mg/kg/injection, schedule: Q07DX005 (ip), vehicle: saline with Tween-80

## COc1ccc(C(=O)/C(Br)=C/C(=O)O)cc1
endpoint: mean tumor weight, dose: 8.0 mg/kg/injection, schedule: Q07DX004 (ip), vehicle: saline
  T/C: 69 % of control
endpoint: mean tumor weight, dose: 12.5 mg/kg/injection, schedule: Q01DX009 (ip), vehicle: saline
  T/C: 206 % of control and 122 % of control
endpoint: mean tumor weight, dose: 16.0 mg/kg/injection, schedule: Q07DX004 (ip), vehicle: saline
  T/C: 171 % of control
endpoint: mean tumor weight, dose: 25.0 mg/kg/injection, schedule: Q01DX009 (ip), vehicle: saline
  T/C: 241 % of control and 113 % of control
[1]
  T/C: 190 % of control
endpoint: mean tumor weight, dose: 32.0 mg/kg/injection, schedule: Q07DX004 (ip), vehicle: saline
  T/C: 163 % of control
endpoint: mean tumor weight, dose: 50.0 mg/kg/injection, schedule: Q01DX009 (ip), vehicle: saline
  T/C: 156 % of control and 209 % of control
[2]
  T/C: 86 % of control
endpoint: mean tumor weight, dose: 64.0 mg/kg/injection, schedule: Q07DX004 (ip), vehicle: saline
  T/C: 89 % of control
endpoint: median tumor weight (est.), dose: 4.0 mg/kg/injection, schedule: Q01DX005 (ip), vehicle: saline
  T/C: 159 % of control
endpoint: median tumor weight (est.), dose: 8.0 mg/kg/injection, schedule: Q04DX005 (ip), vehicle: saline
  T/C: 114 % of control
[3]
  T/C: 120 % of control
endpoint: median tumor weight (est.), dose: 16.0 mg/kg/injection, schedule: Q01DX005 (ip), vehicle: saline
  T/C: 100 % of control
endpoint: median tumor weight (est.), dose: 16.0 mg/kg/injection, schedule: Q07DX005 (ip), vehicle: saline
  T/C: 120 % of control
endpoint: median tumor weight (est.), dose: 32.0 mg/kg/injection, schedule: Q01DX005 (ip), vehicle: saline
  T/C: 116 % of control
endpoint: median tumor weight (est.), dose: 32.0 mg/kg/injection, schedule: Q07DX005 (ip), vehicle: saline
  T/C: 50 % of control
endpoint: median tumor weight (est.), dose: 64.0 mg/kg/injection, schedule: Q01DX005 (ip), vehicle: saline
  T/C: 56 % of control
endpoint: median tumor weight (est.), dose: 64.0 mg/kg/injection, schedule: Q04DX005 (ip), vehicle: saline
  T/C: 219 % of control
endpoint: median tumor weight (est.), dose: 64.0 mg/kg/injection, schedule: Q07DX005 (ip), vehicle: saline
  T/C: 105 % of control

## COC(=O)C(N)Cc1ccc(O)c(O)c1 (stereo unspecified)
[4]
  T/C: 195 % of control
[5]
  T/C: 112 % of control
endpoint: median tumor weight (est.), dose: 800.0 mg/kg/injection, schedule: Q07DX005 (ip), vehicle: saline
  T/C: 108 % of control

## O=C(O)CC(NC(=O)CP(=O)(O)O)C(=O)O (stereo unspecified)
[6]
  T/C: 92 % of control
[7]
  T/C: 94 % of control
[4]
  T/C: 62 % of control
[8]
  T/C: 56 % of control
[5]
  T/C: 9 % of control
endpoint: median tumor weight change, dose: 100.0 mg/kg/injection, schedule: Q01DX001 (ip), vehicle: saline
  T/C: 81 % of control
endpoint: median tumor weight change, dose: 200.0 mg/kg/injection, schedule: Q01DX001 (ip), vehicle: saline
  T/C: 92 % of control
endpoint: median tumor weight change, dose: 400.0 mg/kg/injection, schedule: Q01DX001 (ip), vehicle: saline
  T/C: 85 % of control
endpoint: median tumor weight change, dose: 800.0 mg/kg/injection, schedule: Q01DX001 (ip), vehicle: saline
  T/C: 66 % of control

## CCCCCCCC(=O)N/N=C(\CO)[C@]1(O)Cc2c(O)c3c(c(O)c2[C@@H](OC2CC(N)C(O)C(C)O2)C1)C(=O)c1c(OC)cccc1C3=O (stereo partly specified)
endpoint: median tumor weight (est.), dose: 1.5 mg/kg/injection, schedule: Q07DX005 (ip), vehicle: saline
  T/C: 76 % of control
endpoint: median tumor weight (est.), dose: 3.0 mg/kg/injection, schedule: Q07DX005 (ip), vehicle: saline
  T/C: 110 % of control
endpoint: median tumor weight (est.), dose: 6.0 mg/kg/injection, schedule: Q07DX005 (ip), vehicle: saline
  T/C: 37 % of control
endpoint: median tumor weight (est.), dose: 12.0 mg/kg/injection, schedule: Q07DX005 (ip), vehicle: saline
  T/C: 4 % of control

## CCOC(=O)NC1=C(N2CC2)C(=O)C(NC(=O)OCC)=C(N2CC2)C1=O
endpoint: median tumor weight (est.), dose: 0.78 mg/kg/injection, schedule: Q07DX005 (ip), vehicle: saline
  T/C: 36 % of control
endpoint: median tumor weight (est.), dose: 1.56 mg/kg/injection, schedule: Q07DX005 (ip), vehicle: saline with Tween-80
  T/C: 53 % of control
endpoint: median tumor weight (est.), dose: 1.56 mg/kg/injection, schedule: Q07DX005 (ip), vehicle: saline
  T/C: 36 % of control
[9]
  T/C: 59 % of control
endpoint: median tumor weight (est.), dose: 3.12 mg/kg/injection, schedule: Q07DX005 (ip), vehicle: saline
  T/C: 56 % of control
[10]
  T/C: 25 % of control
[11]
  T/C: 25 % of control
[12]
  T/C: 11 % of control
[13]
  T/C: 23 % of control
endpoint: median tumor weight change, dose: 2.5 mg/kg/injection, schedule: Q01DX001 (ip), vehicle: saline
  T/C: 33 % of control
endpoint: median tumor weight change, dose: 2.5 mg/kg/injection, schedule: Q01DX001 (ip), vehicle: suspension in saline
  T/C: 81 % of control
endpoint: median tumor weight change, dose: 5.0 mg/kg/injection, schedule: Q01DX001 (ip), vehicle: saline
  T/C: 43 % of control
endpoint: median tumor weight change, dose: 5.0 mg/kg/injection, schedule: Q01DX001 (ip), vehicle: suspension in saline
  T/C: 80 % of control
endpoint: median tumor weight change, dose: 10.0 mg/kg/injection, schedule: Q01DX001 (ip), vehicle: saline with Tween-80
  T/C: 16 % of control and 31 % of control
endpoint: median tumor weight change, dose: 10.0 mg/kg/injection, schedule: Q01DX001 (ip), vehicle: saline
  T/C: 32 % of control
endpoint: median tumor weight change, dose: 10.0 mg/kg/injection, schedule: Q01DX001 (ip), vehicle: suspension in saline
  T/C: 52 % of control
endpoint: median tumor weight change, dose: 20.0 mg/kg/injection, schedule: Q01DX001 (ip), vehicle: saline with Tween-80
  T/C: -14 % of control
endpoint: median tumor weight change, dose: 20.0 mg/kg/injection, schedule: Q01DX001 (ip), vehicle: saline
  T/C: 11 % of control
endpoint: median tumor weight change, dose: 20.0 mg/kg/injection, schedule: Q01DX001 (ip), vehicle: suspension in saline
  T/C: 19 % of control

## C1CN2CN3CCN(CN1C3)C2
endpoint: mean tumor weight, dose: 12.5 mg/kg/injection, schedule: Q07DX006 (ip), vehicle: saline
  T/C: 85 % of control
[1]
  T/C: 104 % of control
[2]
  T/C: 79 % of control
endpoint: mean tumor weight, dose: 100.0 mg/kg/injection, schedule: Q07DX006 (ip), vehicle: saline
  T/C: 26 % of control
[11]
  T/C: 75 % of control
[13]
  T/C: 107 % of control
[6]
  T/C: 93 % of control
[7]
  T/C: 82 % of control
[4]
  T/C: 107 % of control
[8]
  T/C: 67 % of control

## COc1cc([C@@H]2c3cc4c(c(O)c3C[C@H]3COC(=O)[C@@H]32)OCO4)cc(OC)c1O
endpoint: median tumor weight (est.), dose: 0.5 mg/kg/injection, schedule: Q07DX005 (ip), vehicle: saline
  T/C: 275 % of control
endpoint: median tumor weight (est.), dose: 1.0 mg/kg/injection, schedule: Q07DX005 (ip), vehicle: saline
  T/C: 85 % of control
endpoint: median tumor weight (est.), dose: 2.0 mg/kg/injection, schedule: Q07DX005 (ip), vehicle: saline
  T/C: 56 % of control
endpoint: median tumor weight (est.), dose: 4.0 mg/kg/injection, schedule: Q07DX005 (ip), vehicle: saline
  T/C: 26 % of control
[3]
  T/C: 27 % of control

## N#CC(=C1SCS1)[N+](=O)[O-]
endpoint: median tumor weight change, dose: 7.5 mg/kg/injection, schedule: Q01DX001 (ip), vehicle: saline with Tween-80
  T/C: 83 % of control
endpoint: median tumor weight change, dose: 15.0 mg/kg/injection, schedule: Q01DX001 (ip), vehicle: saline with Tween-80
  T/C: 90 % of control
endpoint: median tumor weight change, dose: 30.0 mg/kg/injection, schedule: Q01DX001 (ip), vehicle: saline with Tween-80
  T/C: 152 % of control
endpoint: median tumor weight change, dose: 60.0 mg/kg/injection, schedule: Q01DX001 (ip), vehicle: saline with Tween-80
  T/C: 48 % of control

## O=CN(SSN(C=O)C1CCCCC1)C1CCCCC1
[14]
  T/C: 101 % of control
[15]
  T/C: 123 % of control
endpoint: median tumor weight (est.), dose: 200.0 mg/kg/injection, schedule: Q07DX005 (ip), vehicle: saline with Tween-80
  T/C: 100 % of control

## c1ccc2c(c1)nnn1c3cnccc3nc21
[9]
  T/C: 115 % of control
[10]
  T/C: 85 % of control
[12]
  T/C: 105 % of control
[14]
  T/C: 124 % of control

## COC12C(COC(=O)NCCO)C3=C(C(=O)C(C)=C(N)C3=O)N1CC1NC12 (stereo unspecified)
endpoint: median tumor weight change, dose: 12.5 mg/kg/injection, schedule: Q01DX001 (ip), vehicle: Klucel (hydroxypropylcellulose) (HPC)
  T/C: 77 % of control
endpoint: median tumor weight change, dose: 25.0 mg/kg/injection, schedule: Q01DX001 (ip), vehicle: Klucel (hydroxypropylcellulose) (HPC)
  T/C: 78 % of control
endpoint: median tumor weight change, dose: 50.0 mg/kg/injection, schedule: Q01DX001 (ip), vehicle: Klucel (hydroxypropylcellulose) (HPC)
  T/C: 33 % of control
endpoint: median tumor weight change, dose: 100.0 mg/kg/injection, schedule: Q01DX001 (ip), vehicle: Klucel (hydroxypropylcellulose) (HPC)
  T/C: -64 % of control

## C=C(C)C12CC(C)C34OC(CCCCCCCCCCC)(OC1C3C1OC1(CO)C(O)C1(O)C(=O)C(C)=CC14C)O2 (stereo unspecified)
endpoint: median tumor weight (est.), dose: 100.0 micrograms/kg/injection, schedule: Q07DX005 (ip), vehicle: saline + alcohol
  T/C: 58 % of control
endpoint: median tumor weight (est.), dose: 200.0 micrograms/kg/injection, schedule: Q07DX005 (ip), vehicle: saline + alcohol
  T/C: 71 % of control
endpoint: median tumor weight (est.), dose: 400.0 micrograms/kg/injection, schedule: Q07DX005 (ip), vehicle: saline + alcohol
  T/C: 49 % of control

## COc1cc2cc[n+](C)c(Cc3ccccc3)c2cc1OC
[10]
  T/C: 123 % of control
[12]
  T/C: 83 % of control
[14]
  T/C: 94 % of control
[15]
  T/C: 75 % of control
